According to patent US20060121488A1, “Glutamate transport modulatory compounds and methods” (priority 2003, published 2006):

How the values were obtained:
[1] = tested on: large ventral horn motor neurons in organotypic spinal cord cultures; experiment: In vitro model of chronic motor neurodegeneration (THA, organotypic spinal cord cultures); type: cell-based, rat; conditions: THA 100 μM, ceftriaxone 0 to 100 μM, 4 weeks
Description: In vitro model of chronic motor neurodegeneration (FIG. 7B). A model of chronic neurodegeneration was used, based on the blockade of glutamate transport in spinal cord organotypic cultures, with the non specific inhibitor threo-hytdroyxaspartate (THA) or TBOA. Chronic incubation of cultures with THA (or TBOA) leads to chronic increase in extra cellular glutamate and subsequent slow death of motor neurons (over 4 weeks).
To determine if drug induced GLT1 promoter activation, and the subsequent over expression of GLT1 protein could be neuroprotective, we used the organotypic spinal cord paradigm. Organotypic spinal cord cultures were prepared from lumbar spinal cords of 8-day-old rat pups, as described previously. […] No drugs were added for the first 7 days following culture preparation. THA was then added to experimental cultures at a concentration of 100 μM, which produces death of motor neurons within 3 to 4 weeks. […] After 4 weeks, cultures were fixed, and immuostained for neurofilament (SMI-32, Sternberger) to quantify large ventral horn motor neurons (a well established method to follow motor neuron survival in this system).

[2] = tested on: G93A SOD1 mice; experiment: In vivo neuroprotection in the G93A SOD1 mouse
From the text: Numerous studies have documented a contributory role for excess glutamate in this mouse model- and role for modulating glutamate receptors or transporters in neuroprotective strategies. Guo H., et al. Hum Mol Genet. 2003; 12:2519-2532. Modest over expression—by a transgenic approach—can alter disease onset and/or survival.

[3] = tested on: EAAT2; experiment: Spinal cord organotypic culture screen for EAAT2 protein expression (slot blot); type: cell-based, rat
Description: Screening Assay for EAAT2 Protein overexpression. […] Organotypic Spinal Cord. […] Briefly, 300 um sections of rat lumbar spinal cord, from postnatal day 8-10 rat pups, are placed on Millipore Millicell CM semipermeable membranes. Each well contains 5 slices (FIG. 2A). […] Each drug (10-100 μM) was added for 3 days, along with cell culture medium/serum. Cultures were harvested and 5-50 μg of tissue was applied to slot blot apparatus for detection of EAAT2 by standard Western blotting/chemiluminescence methods described in the past. […] All antipeptide antibodies were affinity purified and highly specific for transporter subtypes. […] For each antibody slot blot, the homogenates used are expected to be within the linear range for antibody detection, based on prior standard curves. Screening Library-Assay Design. […] The library is composed of 1040 compounds in 96 well plates, that also included positive control for transporter synthesis (dibutyryl cyclic AMP [dbcAMP], GDNF). […] Each compound was studied at a final concentration of 10-100 μM. All assays were performed in duplicate. Data Analysis. All blots were analyzed by laser densitometry (BioRad Image Quant) and the duplicate points were averaged. Each blot included a positive control standard (e.g. dbcAMP) and a negative control standard (e.g. serum, DMSO). […]

[4] = tested on: cultures prepared from GLT-1 null mice; experiment: Chronic motor neurodegeneration model in cultures prepared from GLT-1 null mice; type: cell-based; conditions: not shown
[5] = tested on: primary cortical mixed neuronal-glial cell cultures; conditions: 1 μM added 48 hours prior to 1 hour OGD; 50% without drug
Description: Method. Primary cortical mixed neuronal-glial cell cultures are prepared from gestation day 14-16 CD1 mice. The preparation of these cultures from mouse fetal cortex is well-described. Experiments are performed at days in vitro 13-15. In the experimental condition, cultures are subjected to oxygen glucose deprivation (OGD), an in-vitro model of ischemia. Cortical cells are either subjected to control treatment (media, modified Earle's balanced salt solution including glucose and bubbled with 5% CO2 95% O2, is changed alongside treatment groups, but no OGD is performed), or 5 minutes (sublethal) of OGD (using modified Earle's balanced salt solution which is devoid of glucose and bubbled with 10% H2, 85% N2, and 5% to deoxygenate). Anaerobic conditions are achieved using an anaerobic chamber at 37° C. OGD is terminated by exchange of media back to oxygenated growing medium. Twenty-four hours following the above, cortical cells are subjected either to no treatment, or one hour of OGD. Neuronal survival is determined by computer-assisted cell counting after staining with the fluorescent vital dyes propidium iodide (as an indicator of neuronal death) and Hoechst 33342 (as an indicator of total number of neurons) and is presented as percent of cell death. Glial nuclei fluoresce at a lower intensity and are gated out. […] Following 1 hour OGD, cells are returned to growing medium without drugs.

[6] = 200 mg/kg ip from approximately 12 weeks of age

CO/N=C(\C(=O)N[C@@H]1C(=O)N2C(C(=O)O)=C(CSc3nc(=O)c(=O)[nH]n3C)CS[C@H]12)c1csc(N)n1 [ceftriaxone]
motor neuron loss [1]: prevented motor neurons loss in a dose dependent manner | duration of strength effect [2, 6]: 4 weeks | time after treatment at which strength effect was observed [2, 6]: ≤ 7 days | increase in over all survival ([2]; 200 mg/kg ip from approximately 12 weeks of age (disease onset)): 7 to 10 days | loss of muscle strength (grip strength) ([2]; 200 mg/kg ip from approximately 12 weeks of age, preservation lost by 18 weeks of age): significantly delayed loss of muscle strength | increase of GLT1 protein and function ([3]; at the concentration used for neuroprotection (Preliminary Data Phases 1 and 2)): at least 3 fold | EC50 ([3]; follow-up dose response analysis, spinal cord organotypic cultures): 3.5 µM | neuroprotection in GLT-1 null cultures [4]: neuroprotection cannot be seen | percentage of neuronal cell death after 1 hour OGD [5]: 20%
